According to EPA's ToxValDB 9.5:
Where “and” joins values, the source holds several entries; their conditions need not be identical. Identical values can stand only once.

Test system: Rattus norvegicus
Settings: Wistar
[1] = short-term, duration: 2 weeks, inhalation, F, generation: P0, P0: Lung: Lung Weight, Relative
[2] = short-term, duration: 2 weeks, inhalation, M, generation: P0, P0: Lung: Lung Weight, Relative
[3] = short-term, duration: 28 days, inhalation, F, Teeth: Incisors, Discolored
[4] = short-term, duration: 28 days, inhalation, M, Teeth: Incisors, Discolored
[5] = short-term, duration: 28 days, oral, gavage, F, Blood: Red Cell Distribution Width (RDW) + Liver: Total Cholesterol (CHOL)
[6] = short-term, duration: 28 days, oral, gavage, M, Blood: Hemoglobin (HGB) + Liver: Total Bilirubin (TBILI)

## F/C(=C(/F)C(F)(C(F)(F)F)C(F)(F)F)C(F)(F)F [(E)-Perfluoro(4-methyl-2-pentene)]
acute, duration: 4 hours, inhalation, F, Central Nervous System: Hunched Posture + Central Nervous System: Ruffled Fur + Lung: Lung, Non-Neoplastic Lesions + Lung: Tachypnea + Whole…
  LOAEL: 21.7 mg/L
acute, duration: 4 hours, inhalation, M, Central Nervous System: Frightened behavior + Central Nervous System: Ruffled Fur + Central Nervous System: Tremor + Lung: Lung, Non-…
  LOAEL: 21.7 mg/L
developmental, duration: 2 weeks, inhalation, M/F, generation: F1, F1: Whole Body: Clinical Signs + F1: Whole Body: Fetal Alterations, Total + F1: Whole Body: Male Pups per Pups Sexed + F1: Whole Body: Pup …
  NOAEL: 4290 mg/m3 and 4300 mg/m3
Reproduction developmental, duration: 2 weeks, inhalation, F, generation: P0, P0: Ovary: Corpora Lutea + P0: Uterus: Implantation + P0: Whole Body: Dams with Stillborn Pups + P0: Whole Body: Days of Cohabitation + P0: …
  NOAEL: 4290 mg/m3 and 4300 mg/m3
Reproduction developmental, duration: 2 weeks, inhalation, M, generation: P0, P0: Whole Body: Days of Cohabitation + P0: Whole Body: Fertility Index + P0: Whole Body: Percent Mating
  NOAEL: 4290 mg/m3 and 4300 mg/m3
short-term, duration: 2 weeks, inhalation, F, generation: P0, P0: Kidney: Kidney, Faded + P0: Liver: Liver Weight, Absolute + P0: Liver: Liver Weight, Relative + P0: Lung: Lung Weight, Absolute + P0: …
  NOAEL: 4290 mg/m3 and 4300 mg/m3
short-term, duration: 2 weeks, inhalation, F, generation: P0, P0: Kidney: Kidney, Faded + P0: Thymus: Thymus, Small + P0: Whole Body: Body Weight Change + P0: Whole Body: Body Weight, Absolute + P0: …
  LOAEL: 9200 mg/m3
[1]
  LOAEL: 4290 mg/m3 and 4300 mg/m3
  NOAEL: 1840 mg/m3
short-term, duration: 2 weeks, inhalation, M, generation: P0, P0: Epididymis: Epididymis Weight, Absolute + P0: Epididymis: Epididymis Weight, Relative + P0: Epididymis: Epididymis, Duct, Exfoliated …
  NOAEL: 4290 mg/m3 and 4300 mg/m3
short-term, duration: 2 weeks, inhalation, M, generation: P0, P0: Epididymis: Epididymis, Small + P0: Kidney: Kidney, Faded + P0: Prostate: Prostate, Small + P0: Seminal Vesicle: Seminal Vesicle, Small…
  LOAEL: 9200 mg/m3
[2]
  LOAEL: 4290 mg/m3 and 4300 mg/m3
  NOAEL: 1840 mg/m3
short-term, duration: 2 weeks, inhalation, M, generation: P0, P0: Whole Body: Feed Consumption, Absolute
  NOAEL: 9200 mg/m3
short-term, duration: 28 days, inhalation, F, Adrenal: Adrenal Gland Weight, Absolute + Blood: Albumin/Globulin (A/G) Ratio + Blood: Hemoglobin (HGB) + Blood: Mean Cell Volume (MCV) + …
  NOAEL: 3070 mg/m3
[3]
  LOAEL: 3070 mg/m3
  NOAEL: 1230 mg/m3 and 1220 mg/m3
short-term, duration: 28 days, inhalation, M, Adrenal: Adrenal Gland Weight, Absolute + Blood: Albumin/Globulin (A/G) Ratio + Blood: Hemoglobin (HGB) + Blood: Mean Cell Volume (MCV) + …
  NOAEL: 3070 mg/m3
[4]
  LOAEL: 3070 mg/m3
  NOAEL: 1230 mg/m3 and 1220 mg/m3
short-term, duration: 28 days, oral, gavage, F, Adrenal: Adrenal Gland Histopathology + Blood: Mean Cell Hemoglobin (MCH) + Blood: Platelet Count (PLT) + Bone: Femur Histopathology + Bone…
  NOAEL: 450 mg/kg-day
short-term, duration: 28 days, oral, gavage, F, Blood: Hematocrit (HCT) + Blood: Hemoglobin (HGB), Recovery + Blood: Mean Cell Volume (MCV) + Blood: Red Blood Cell (RBC) + Calcium (CA) + …
  LOAEL: 450 mg/kg-day
short-term, duration: 28 days, oral, gavage, F, Blood: Hematocrit (HCT) + Blood: Mean Cell Volume (MCV) + Blood: Red Blood Cell (RBC) + Calcium (CA) + Chloride (CL) + Gamma-glutamyl …
  NOAEL: 150 mg/kg-day
short-term, duration: 28 days, oral, gavage, F, Blood: Hemoglobin (HGB) + Blood: Mean Cell Hemoglobin Concentration (MCHC) + Liver: Liver Weight, Absolute + Spleen: Spleen Weight, Absolute
  LOAEL: 50 mg/kg-day
[5]
  LOAEL: 150 mg/kg-day
  NOAEL: 50 mg/kg-day
short-term, duration: 28 days, oral, gavage, M, Adrenal: Adrenal Gland Histopathology + Bone: Femur Histopathology + Bone: Sternum Histopathology + Brain: Brain Weight, Absolute, Recovery…
  NOAEL: 450 mg/kg-day
short-term, duration: 28 days, oral, gavage, M, Blood: Hematocrit (HCT) + Blood: Mean Cell Hemoglobin Concentration (MCHC), Recovery + Blood: Mean Cell Volume (MCV) + Blood: Platelet Count…
  LOAEL: 450 mg/kg-day
short-term, duration: 28 days, oral, gavage, M, Blood: Hematocrit (HCT) + Blood: Mean Cell Volume (MCV) + Blood: Platelet Count (PLT) + Blood: Red Blood Cell (RBC) + Blood: Red Cell …
  NOAEL: 150 mg/kg-day
[6]
  LOAEL: 150 mg/kg-day
  NOAEL: 50 mg/kg-day
short-term, duration: 28 days, oral, gavage, M, Blood: Mean Cell Hemoglobin (MCH) + Blood: Mean Cell Hemoglobin Concentration (MCHC) + Brain: Brain Weight, Absolute + Testis: Testis Weight…
  LOAEL: 50 mg/kg-day
